Here are results for four compounds from patent publication US20140331363A1, “PLANTS WITH ALTERED GLUCURONOXYLAN METHYL TRANSFERASE ACTIVITY AND METHODS OF USE” (UNIVERSITY OF GEORGIA RESEARCH FOUNDATION, INC., priority 2011, published 2014).

Assay [1] deals with T1, GXMT1 (Arabidopsis thaliana, UniProt Q9LQ32).
T1 construct: made in house; host or cells: E. coli BL21-CodonPlus (DE3)-RIPL, pGEX-5X1 vector
T1 sequence (Q9LQ32 44-297): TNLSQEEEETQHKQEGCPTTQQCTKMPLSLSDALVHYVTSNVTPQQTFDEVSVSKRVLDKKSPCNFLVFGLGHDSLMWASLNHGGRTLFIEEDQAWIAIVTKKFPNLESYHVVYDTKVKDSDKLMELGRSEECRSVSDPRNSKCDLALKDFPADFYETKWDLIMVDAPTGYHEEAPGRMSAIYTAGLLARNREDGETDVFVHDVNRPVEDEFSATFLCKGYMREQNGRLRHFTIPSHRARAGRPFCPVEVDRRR
The assay is described as follows: GXMT1 4-O-methyltransferase activity of metal-depleted enzyme, SAH formation by LC-ESI-MS. It counts as biochemical. Conditions: for effect on GXMT1 enzyme activity: metal salts or EDTA at 1 mM, metal-depleted GXMT1.
Procedure: The transfer of a methyl group from SAM to GlcA results in the formation of S-adenosyl homocysteine (SAH). The amounts of SAH formed were determined by LC-ESI-MS (Salyan et al., 2006, Anal Biochem 349:112-117). (B) The effect on GXMT activity of different divalent metals. Protein and buffer solutions were treated with Chelex-100 resin to remove divalent cations prior to initiating the methylation reaction. Metal salts or EDTA were used at a concentration of 1 mM. […] Reaction mixtures were allowed to equilibrate to the specified temperature for 30 min and then the methylation reaction was initiated by the addition of SAMe (15 mM).
Determination of methyltransferase activity using LC-ESI-MS. Glucuronoxylan 4-O-methyltransferase activity was determined using a liquid chromatography-electrospray ionization/mass spectroscopy (LC-ESI-MS) method using selective reaction monitoring (SRM) that measures the formation of S-adenosylhomocysteine from SAM (S17). LC-ESI-MS analyses were performed on a LTQ-XL linear ion trap mass spectrometer (ThermoFisher, Waltham, Mass.) equipped with a Surveyor MS Pump Plus HPLC, a Surveyor Autosampler Plus. Chromatographic separation was as described (Salyan et al., 2006, Anal Biochem 349:112-117). S-adenosylhomocysteine (SAH) eluted at 3.2 min. Thus, the material eluting between 2.5 and 5 min was transferred to the mass spectrometer using an in-line divert/inject valve. The selected reaction monitoring transition used was 385.1>250.1 with a collision energy of 20%. The detection limit was 60.25 nM S-adenosylhomocysteine with a linear response up to 3 μM. […]

Assay [2] concerns the target T1, GXMT1. The assay is described as follows: GXMT1 methyltransferase activity monitored by 1H NMR (GlcA methylation of gxmt1-1 glucuronoxylan). It counts as biochemical. As to the method:
FIG. 12. […] After 48 hours the products formed were treated with endoxylanase and the resulting oligosaccharides were characterized by ^1H NMR spectroscopy. The extent of GlcA methylation was determined by integration of the GlcA (U) and 4-O-methyl GlcA (M) H1 signals (see FIG. 1B).
Determination of Methyltransferase Activity using ^1H-NMR Spectroscopy and LC-ESI-MS. The temperature optimum for GXMT1 activity was between 19-25° C. (FIG. 10C). The transfer of methyl groups to O-4 of GlcA was established by ^1H NMR spectroscopy. Assays were performed at 23° C. in 50 mM potassium bicarbonate, pH 7.5, (250 μL) containing acceptor substrate equivalent to 2.27 mM available GlcA residues, recombinant GXMT1 (10 μM), CoCl2 (2 mM) and 1.5 mM S-adenosyl-L-methionine sulfate p-toluenesulfonate, unless otherwise indicated. The formation of SAH from SAM was determined using LC-ESI-MS (Salyan et al., 2006, Anal Biochem 349:112-117). […] Details of both assays are in Example 2.
Monitoring methyltransferase activity by ^1H-NMR spectroscopy. […] The dry reaction products were dissolved in 0.25 mL D2O and analyzed by ^1H-NMR spectroscopy. Spectra were recorded before and after endoxylanase treatment, when polymeric xylan was used as a substrate.

Turning to `[Cl-].[Cl-].[Co+2]` [Co^2+], the “enhancement of GXMT1 activity” value at GXMT1 [1] (metal salts at 1 mM, metal-depleted GXMT1 3.4 μM, 180 min, average) is given as 1,180%.

As for `[Cu+2]` [Cu^2+], the “effect on GXMT1 enzyme activity” value at GXMT1 [1] is recorded as “completely inhibited”.

With `O=C(O)CN(CCN(CC(=O)O)CC(=O)O)CC(=O)O` [EDTA], on GXMT1 [1], the “effect on GXMT1 enzyme activity” value is “completely inhibited”.

In the case of `Nc1ncnc2c1ncn2[C@@H]1O[C@H](CSCC[C@H](N)C(=O)O)[C@@H](O)[C@H]1O` [SAH, S-adenosyl-L-homocysteine], the “reduction of O-methyl transferase activity” value at GXMT1 [2] (1.5 mM SAH with SAM, 10 μM GXMT1, 48 hours) is on record as “over 50%”. The “effect on in vitro GXMT1 activity” value on GXMT1 [2] (SAH added at the start of the reaction) was “inhibited”.
